Assay results from patent US8835469B2 (Cadila Healthcare Limited, priority 2009, dated 2014).

Key:
glucokinase (GK) enzyme = target: T1, glucokinase (GK) enzyme (Homo sapiens, UniProt P35557); experiment: In-vitro glucokinase (GK) activation assay (coupled with glucose-6-phosphate dehydrogenase, absorbance at 340); type: biochemical; conditions: glucose 2.5 mM; for activity at 0.1 µM / activity at 1 µM / activity at 5 µM / activity at 10 µM: read-out: % of GK activity wrt DMSO; for EC50: GK enzyme 0.2 units, ATP 1 mM
T1 sequence (P35557 1-465): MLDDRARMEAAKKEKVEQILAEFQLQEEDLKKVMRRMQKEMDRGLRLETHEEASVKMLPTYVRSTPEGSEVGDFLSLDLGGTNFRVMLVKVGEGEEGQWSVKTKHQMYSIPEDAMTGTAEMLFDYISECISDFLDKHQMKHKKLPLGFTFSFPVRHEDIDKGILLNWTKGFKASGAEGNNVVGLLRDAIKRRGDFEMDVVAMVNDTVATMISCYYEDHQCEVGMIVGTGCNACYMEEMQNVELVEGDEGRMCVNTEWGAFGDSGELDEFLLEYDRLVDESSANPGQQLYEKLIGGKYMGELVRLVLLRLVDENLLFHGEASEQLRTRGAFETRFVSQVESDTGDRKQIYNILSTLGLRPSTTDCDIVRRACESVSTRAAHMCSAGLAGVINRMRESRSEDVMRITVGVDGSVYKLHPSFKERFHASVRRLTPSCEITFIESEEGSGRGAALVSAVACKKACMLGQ
Description: The compound of the invention was incubated with glucokinase (GK) enzyme (0.2 units) for 10 minutes in assay buffer at 26° C. After incubation, addition of glucose-6-phosphate dehydrogenase (2.5 units), ATP (1 mM) and glucose (2.5 mM). Absorbance is measured at 340 nm for 15 minutes with 10 second interval using UV transparent plate in kinetic mode on Spectramax-190 at 30° C.

Male C57 mice = experiment: Oral glucose tolerance test (OGTT), overnight fasted; type: in vivo; conditions: for % change in glucose levels Vs Control: treated at −30 min, oral glucose load 3 g/kg at 0 min; for % change in glucose levels Vs Control, Mean: Mean over the time points, oral glucose load 3 g/kg
Description: Effect of Glucokinase Activators (GKAs) of the Present Invention on Glucose Reduction Determined by Oral Glucose Tolerence Test (OGTT):
Male C57 mice, aged 8-10 weeks were fasted overnight and subjected to the treatment of selected GK activator at time denoted as −30 min. At time 0 min, mice were given oral glucose load of 3 g/kg, and the glucose excursion was observed upto 120 min. The percentage change against the change in glucose levels of control are mentioned in the table 2.

| SMILES | activity at 0.1 µM (glucokinase (GK) enzyme; 0.1 uM compound) | activity at 1 µM (glucokinase (GK) enzyme; 1 uM compound) | activity at 5 µM (glucokinase (GK) enzyme; 5 uM compound) | activity at 10 µM (glucokinase (GK) enzyme; 10 uM compound) | EC50 (glucokinase (GK) enzyme) | % change in glucose levels Vs Control (Male C57 mice; 0 min Vs −30 min) | % change in glucose levels Vs Control (Male C57 mice; 30 min Vs −30 min) | % change in glucose levels Vs Control (Male C57 mice; 60 min Vs −30 min) | % change in glucose levels Vs Control (Male C57 mice; 120 min Vs −30 min) | % change in glucose levels Vs Control, Mean (Male C57 mice) | % of GK activity wrt DMSO (glucokinase (GK) enzyme; 0.1 uM compound) | % of GK activity wrt DMSO (glucokinase (GK) enzyme; 1 uM compound) | % of GK activity wrt DMSO (glucokinase (GK) enzyme; 5 uM compound) | % of GK activity wrt DMSO (glucokinase (GK) enzyme; 10 uM compound) |
| --- | --- | --- | --- | --- | --- | --- | --- | --- | --- | --- | --- | --- | --- | --- |
| Cc1nnc(-c2ccc(Oc3cc(O[C@H]4CCN(C)C4=O)cc(C(=O)Nc4nccs4)c3)cc2)o1 [Example 68, (S)-3-(4-(5-Methyl-1,3,4-oxadiazol-2-yl)phenoxy)-5-((1-methyl-2-oxopyrrolidin-3-yl)oxy)-N-(thiazol-2-yl)benzamide] | 144% | 238% | 255% | 271% | 34 nM | −46.7 ± 0.8% | −25.6 ± 7.2% | −51.5 ± 4.9% | −58.2 ± 6.7% | −46.6% |  |  |  |  |
| Cc1nnc(-c2ccc(Oc3cc(O[C@H]4CCN(C)C4=O)cc(C(=O)Nc4ncc(C#N)s4)c3)cc2)o1 [Example 69, (S)-(5-cyanothiazol-2-yl)-3-(4-(5-methyl-1,3,4-oxadiazol-2-yl)phenoxy)-5-((1-methyl-2-oxopyrrolidin-3-yl)oxy)benzamide] |  |  |  |  |  | −58.6 ± 5.6% | −91.2 ± 1.3% | −84.4 ± 0.9% | −72.9 ± 5.6% | −75.2% | 116.7% | 170.1% | 249.2% | 255.3% |
| Cc1nnc(-c2ccc(Oc3cc(O[C@@H]4CCN(C)C4=O)cc(C(=O)Nc4nccs4)c3)cc2)o1 [Example 77, (R)-3-(4-(5-methyl-1,3,4-oxadiazol-2-yl)phenoxy)-5-((1-methyl-2-oxopyrrolidin-3-yl)oxy)-N-(thiazol-2-yl)benzamide] | 112% | 141% | 230% | 261% | 356 nM | −4.8 ± 7.5% | −15.1 ± 6.6% | −13.9 ± 7.3% | −22.0 ± 3.3% | −11.2% |  |  |  |  |
